Experimental findings from paper PMC7588595, “Small-molecule active pharmaceutical ingredients of approved cancer therapeutics inhibit human aspartate/asparagine-β-hydroxylase” (Bioorganic & Medicinal Chemistry, 2020) are described below.

The target in this experiment is T1, human AspH (His6-AspH315–758) (Homo sapiens, UniProt Q12797).
T1 construct: N-Terminally His6-tagged human AspH315–758 (His6-AspH315–758) was produced in Escherichia coli BL21 (DE3) cells; made in house; host or cells: Escherichia coli BL21 (DE3), pET-28a(+) vector
T1 sequence (Q12797 315-758): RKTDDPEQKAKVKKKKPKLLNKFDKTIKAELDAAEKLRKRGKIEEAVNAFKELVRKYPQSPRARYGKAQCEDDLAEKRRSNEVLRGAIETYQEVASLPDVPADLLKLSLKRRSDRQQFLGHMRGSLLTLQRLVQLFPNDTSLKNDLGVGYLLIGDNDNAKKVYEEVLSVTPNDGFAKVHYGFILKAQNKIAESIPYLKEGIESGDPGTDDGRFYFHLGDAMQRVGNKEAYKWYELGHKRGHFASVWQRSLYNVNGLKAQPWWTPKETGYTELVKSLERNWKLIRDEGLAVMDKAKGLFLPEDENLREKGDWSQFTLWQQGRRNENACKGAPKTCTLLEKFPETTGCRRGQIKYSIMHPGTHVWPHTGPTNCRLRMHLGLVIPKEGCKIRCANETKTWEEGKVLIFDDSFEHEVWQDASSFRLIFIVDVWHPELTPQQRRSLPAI
Description: SPE-MS AspH inhibition assay (hFX-CP101-119 substrate hydroxylation). It counts as biochemical. Particulars: for Plate 1 (% inhibition) / Plate 1 (% conversion) / Plate 1-duplicate (% inhibition) / Plate 1-duplicate (% conversion): AspH-inhibitor screening; for Plate 1 (% inhibition): 384-well Plate 1; for Plate 1 (% conversion): 384-well Plate 1, substrate conversion; for Plate 1-duplicate (% conversion): substrate conversion; for remaining activity at 20 µM: 20 μM fixed inhibitor concentration; for Hill coefficient of AspH inhibition curves: dose-response curves of SPE-MS AspH inhibition assay.

Setting [1] is: 50 nM His6-AspH315–758, 1 μM hFX-CP101–119, 100 μM LAA, 3 μM 2OG, 2 μM FAS, 50 mM HEPES pH 7.5, 20 °C, read-out: IC50.
[2] abbreviates: read-out: IC50 at 10 μM substrate, 10 μM hFX-CP101–119 and 10 μM 2OG instead of 1 μM hFX-CP101–119 and 3 μM 2OG.
Setting [3] is: read-out: IC50 at 20 μM Fe(II), 20 μM Fe(II) instead of 2 μM Fe(II).
The mark [4] stands for this setting: read-out: IC50 at 200 μM 2OG, 200 μM 2OG instead of 3 μM 2OG.

Usually IC50 stands for the concentration at which inhibition is half-maximal. One may read the remaining activity as the share of the control activity or signal that is left under treatment. Read a high remaining activity as a small loss of activity.

Where a name gives a salt, the structure may show the parent alone. Read-outs that look alike come from different tables or passages of the source. A value given as a limit tells only on which side of the number the result lay.

Take `CCCCCCCCCCCCCCCCCCOP(=O)([O-])OC1CC[N+](C)(C)CC1` [Perifosine aq/PBS]: the “Plate 1 (% inhibition)” value is given as -1.17%, the “Plate 1 (% conversion)” value came out at 50.29%, the “Plate 1-duplicate (% inhibition)” value is recorded as -2.15% and the “Plate 1-duplicate (% conversion)” value is listed as 53.11%.

Regarding `C[C@@H](Oc1cc(-c2cnn(C3CCNCC3)c2)cnc1N)c1c(Cl)ccc(F)c1Cl` [PF-2341066 (Crizotinib)], the “Plate 1 (% inhibition)” value was -4.19%, the “Plate 1 (% conversion)” value worked out at 51.68%, the “Plate 1-duplicate (% inhibition)” value is listed as -4.98% and the “Plate 1-duplicate (% conversion)” value came out at 54.51%.

In the case of `Cc1nc(Nc2ncc(C(=O)Nc3c(C)cccc3Cl)s2)cc(N2CCN(CCO)CC2)n1` [Dasatinib], the “Plate 1 (% inhibition)” value is on record as -20.82%, the “Plate 1 (% conversion)” value is recorded as 59.36%, the “Plate 1-duplicate (% inhibition)” value is listed as -21.12% and the “Plate 1-duplicate (% conversion)” value was 62.52%.

Turning to `C#CCC(Cc1cnc2nc(N)nc(N)c2n1)c1ccc(C(=O)N[C@@H](CCC(=O)O)C(=O)O)cc1` (stereo partly shown) [Pralatrexate], the “Plate 1 (% inhibition)” value was 13.78%, the “Plate 1 (% conversion)” value is recorded as 43.39%, the “Plate 1-duplicate (% inhibition)” value was determined as 14.13% and the “Plate 1-duplicate (% conversion)” value worked out at 45.03%.

As for `O=C1CN2Cc3c(ccc(Cl)c3Cl)N=C2N1` [Anagrelide], the “Plate 1 (% inhibition)” value stood at 0.57%, the “Plate 1 (% conversion)” value is given as 49.49%, the “Plate 1-duplicate (% inhibition)” value is 0.27% and the “Plate 1-duplicate (% conversion)” value was found to be 51.91%.

As for `CCCCC(=O)OCC(=O)[C@]1(O)Cc2c(O)c3c(c(O)c2[C@@H](O[C@H]2C[C@H](NC(=O)C(F)(F)F)[C@H](O)[C@H](C)O2)C1)C(=O)c1c(OC)cccc1C3=O` [Valrubicin], the “Plate 1 (% inhibition)” value is reported as -2.24%, the “Plate 1 (% conversion)” value worked out at 50.79%, the “Plate 1-duplicate (% inhibition)” value was -16.67% and the “Plate 1-duplicate (% conversion)” value turned out to be 60.31%.

As for `CC[C@@H]1C(=O)N(C)c2cnc(Nc3ccc(C(=O)N[C@H]4CC[C@H](N5CCN(CC6CC6)CC5)CC4)cc3OC)nc2N1C(C)C` [BI 6727_Volasertib], the “Plate 1 (% inhibition)” value is listed as -9.00%, the “Plate 1 (% conversion)” value worked out at 53.91%, the “Plate 1-duplicate (% inhibition)” value was -19.71% and the “Plate 1-duplicate (% conversion)” value stood at 61.82%.

Take `Cc1c(CN2CCN(C(=O)[C@H](C)O)CC2)sc2c(N3CCOCC3)nc(-c3cnc(N)nc3)nc12` [GDC-0980]: the “Plate 1 (% inhibition)” value was 2.44%, the “Plate 1 (% conversion)” value turned out to be 48.62%, the “Plate 1-duplicate (% inhibition)” value was 1.54% and the “Plate 1-duplicate (% conversion)” value is listed as 51.28%.

For `CCn1c(-c2nonc2N)nc2cnc(Oc3cccc(NC(=O)c4ccc(OCCN5CCOCC5)cc4)c3)cc21` [GSK 269962], the “Plate 1 (% inhibition)” value was -27.40%, the “Plate 1 (% conversion)” value came out at 62.40%, the “Plate 1-duplicate (% inhibition)” value is recorded as -34.23% and the “Plate 1-duplicate (% conversion)” value was 69.02%.

Turning to `CC[C@@H]1C(=O)OC[C@@H]1Cc1cncn1C` [Pilocarpine], the “Plate 1 (% inhibition)” value came out at 3.20%, the “Plate 1 (% conversion)” value came to 48.27%, the “Plate 1-duplicate (% inhibition)” value is 17.17% and the “Plate 1-duplicate (% conversion)” value is on record as 43.53%.

As to `Cn1cncc1[C@@](N)(c1ccc(Cl)cc1)c1ccc2c(c1)c(-c1cccc(Cl)c1)cc(=O)n2C` [Tipifarnib (Zarnestra)], the “Plate 1 (% inhibition)” value was -67.01%, the “Plate 1 (% conversion)” value is recorded as 80.70%, the “Plate 1-duplicate (% inhibition)” value was -61.42% and the “Plate 1-duplicate (% conversion)” value turned out to be 82.50%.

As to `C=C1C[C@@H]2[C@H](CC[C@]3(C)C(=O)CC[C@@H]23)[C@@]2(C)C=CC(=O)C=C12` [Exemestane], the “Plate 1 (% inhibition)” value is given as -2.81%, the “Plate 1 (% conversion)” value is recorded as 51.05%, the “Plate 1-duplicate (% inhibition)” value came out at 2.16% and the “Plate 1-duplicate (% conversion)” value worked out at 50.97%.

For `CN(C)CCOc1ccc(/C(=C(/CCCl)c2ccccc2)c2ccccc2)cc1` [Toremifene citrate], the “Plate 1 (% inhibition)” value stood at 75.12%, the “Plate 1 (% conversion)” value came out at 15.06%, the “Plate 1-duplicate (% inhibition)” value was found to be 75.95% and the “Plate 1-duplicate (% conversion)” value turned out to be 14.37%.

Take `COc1c/c(=C2\C=c3ccccc3=N2)[nH]/c1=C\c1[nH]c(C)cc1C.CS(=O)(=O)O` [Obatoclax, reference compound]: the remaining activity at 20 µM is roughly 20% and the “Hill coefficient of AspH inhibition curves” value is on record as less than -2.0. Besides, under setting [1], the concentration for half-maximal inhibition (IC50) is 13.2 ± 3.1 µM. The IC50 under setting [2] turned out to be 9.44 ± 3.16 µM. Also, the 50% inhibitory concentration (IC50) under setting [3] was 11.9 ± 0.8 µM. Further, the IC50 under setting [4] was 16.4 ± 4.6 µM.

As for `CO[C@@]12[C@H](COC(N)=O)C3=C(C(=O)C(C)=C(N)C3=O)N1C[C@@H]1N[C@@H]12` [Mitomycin], the “Plate 1 (% inhibition)” value amounted to 1.59%, the “Plate 1 (% conversion)” value is reported as 49.02%, the “Plate 1-duplicate (% inhibition)” value is listed as 2.59% and the “Plate 1-duplicate (% conversion)” value is given as 50.76%.

With `NC1(c2ccc(-c3nc4ccn5c(=O)[nH]nc5c4cc3-c3ccccc3)cc2)CCC1` [MK-2206], the “Plate 1 (% inhibition)” value is given as -21.29%, the “Plate 1 (% conversion)” value stood at 59.58%, the “Plate 1-duplicate (% inhibition)” value was -13.95% and the “Plate 1-duplicate (% conversion)” value was 58.96%.

In the case of `CC[C@H](Nc1ncnc2[nH]cnc12)c1nc2cccc(F)c2c(=O)n1-c1ccccc1` [CAL-101], the “Plate 1 (% inhibition)” value is given as 5.28%, the “Plate 1 (% conversion)” value worked out at 47.31%, the “Plate 1-duplicate (% inhibition)” value was found to be 3.08% and the “Plate 1-duplicate (% conversion)” value is given as 50.52%.

Consider `CCNC(=O)CCC/C=C\C[C@@H]1[C@@H](/C=C/[C@@H](O)CCc2ccccc2)[C@H](O)C[C@@H]1O` [Bimatoprost], for which the “Plate 1 (% inhibition)” value was -1.86%, the “Plate 1 (% conversion)” value is on record as 50.61%, the “Plate 1-duplicate (% inhibition)” value was -1.99% and the “Plate 1-duplicate (% conversion)” value is 53.03%.

With `COc1cc2c(Oc3ccc(NC(=O)C4(C(=O)Nc5ccc(F)cc5)CC4)cc3F)ccnc2cc1OCCCN1CCOCC1` [XL880 (Foretinib)], the “Plate 1 (% inhibition)” value is reported as -64.58%, the “Plate 1 (% conversion)” value amounted to 79.57%, the “Plate 1-duplicate (% inhibition)” value was -62.78% and the “Plate 1-duplicate (% conversion)” value was 83.18%.

Turning to `CCCS(=O)(=O)Nc1ccc(F)c(C(=O)c2c[nH]c3ncc(-c4ccc(Cl)cc4)cc23)c1F` [Vemurafenib, reference compound], the remaining activity at 20 µM was roughly 20%, the “Plate 1 (% conversion)” value turned out to be 12.12%, the “Plate 1-duplicate (% conversion)” value turned out to be 12.00% and the “Hill coefficient of AspH inhibition curves” value was less than -2.0. Besides, the half-inhibitory concentration (IC50) under setting [1] is 12.9 ± 1.6 µM. In addition, the half-inhibitory concentration (IC50) under setting [2] turned out to be 16.9 ± 4.4 µM. Also, the half-inhibitory concentration (IC50) under setting [3] worked out at 10.5 ± 1.9 µM. For the same molecule, under setting [4], the concentration for half-maximal inhibition (IC50) was 15.1 ± 0.2 µM.

As for `CC(C)Cn1cnc2c(N)nc3ccccc3c21` [Imiquimod], the “Plate 1 (% inhibition)” value is 3.84%, the “Plate 1 (% conversion)” value amounted to 47.98%, the “Plate 1-duplicate (% inhibition)” value is given as 5.27% and the “Plate 1-duplicate (% conversion)” value amounted to 49.43%.

As to `Nc1ccn([C@@H]2O[C@H](CO)[C@@H](O)C2(F)F)c(=O)n1` [Gemcitabine hydrochloride], the “Plate 1 (% inhibition)” value amounted to 1.09%, the “Plate 1 (% conversion)” value was 49.25%, the “Plate 1-duplicate (% inhibition)” value stood at 10.34% and the “Plate 1-duplicate (% conversion)” value is 46.91%.

As to `CO[C@@H]1[C@H](N(C)C(=O)c2ccccc2)C[C@H]2O[C@]1(C)n1c3ccccc3c3c4c(c5c6ccccc6n2c5c31)C(=O)NC4` [Midostaurin, reference compound], the IC50 by setting is: under setting [1], 9.43 ± 3.07 µM; under setting [2], 6.02 ± 1.32 µM; under setting [3], 7.28 ± 0.9 µM; under setting [4], 12.4 ± 2.9 µM.

On to `Cn1cc(C2=C(c3cn(C4CCN(Cc5ccccn5)CC4)c4ccccc34)C(=O)NC2=O)c2ccccc21` [Enzastaurin], for which the “Plate 1 (% inhibition)” value is -3.95%, the “Plate 1 (% conversion)” value was 51.57%, the “Plate 1-duplicate (% inhibition)” value is on record as -0.48% and the “Plate 1-duplicate (% conversion)” value is 52.28%.

`CO[C@H]1C[C@@H]2CC[C@@H](C)[C@@](O)(O2)C(=O)C(=O)N2CCCC[C@H]2C(=O)O[C@H]([C@H](C)C[C@@H]2CC[C@@H](OP(C)(C)=O)[C@H](OC)C2)CC(=O)[C@H](C)/C=C(\C)[C@@H](O)[C@@H](OC)C(=O)[C@H](C)C[C@H](C)/C=C/C=C/C=C/1C` [Ridaforolimus]: the “Plate 1 (% inhibition)” value was found to be 16.02%, the “Plate 1 (% conversion)” value is listed as 42.35%, the “Plate 1-duplicate (% inhibition)” value came to 8.84% and the “Plate 1-duplicate (% conversion)” value was 47.66%.
